Structures can show the parent of a compound that is named as a salt.
biological target: Recombinant Human (rh) DPP1 (Homo sapiens, UniProt P53634); test: Fluorescence Assay for Recombinant Human (rh) DPP1; format: biochemical; conditions: rhDPP1, substrate H-Gly-Arg-AMC, pH5.0, 22° C., pre-incubated 30-60 min; read-out: DPP1 activity, pIC50 (converted)
Experimental: Fluorescence Assay for Recombinant Human (rh) DPP1
The activity of DPP1 was determined by measuring the enzymatic release of aminomethyl coumarin (AMC) from the peptide substrate (H-Gly-Arg-AMC), which leads to an increase in fluorescence intensity at λex=350 nm and λem=450 nm. The assay was carried out in black 384 well plates in a final volume of 50 μl at 22° C. The assay conditions contained the following: 25 mM piperazine buffer pH5.0; 50 mM NaCl, 5 mM DTT; 0.01% (v/v) Triton X-100; 100 μM H-Gly-Arg-AMC and rhDPP1 ([…]). […] A standard DPP1 inhibitor (vinyl sulfone, see below, or Example 24 from WO2009/074829) was used as a positive control in the assay. Routinely, inhibitors were pre-incubated with rhDPP1 for 30-60 min prior to the addition of the peptide substrate to start the reaction for a further 60 min at 22° C. After that the plates were immediately read in a fluorescence plate reader using the above emission and excitation wavelengths [modified from Kam, C M, Gotz, M G, Koot, G, McGuire, M J, Thiele, D L, Hudig, D & Powers, J C (2004). Arch Biochem Biophys, 427, 123-134 & McGuire, M J, Lipsky, P E & Thiele, D L (1992). Arch Biochem Biophys, 295, 280-288].

Sequence of Recombinant Human (rh) DPP1 (P53634 231-394 limits assumed): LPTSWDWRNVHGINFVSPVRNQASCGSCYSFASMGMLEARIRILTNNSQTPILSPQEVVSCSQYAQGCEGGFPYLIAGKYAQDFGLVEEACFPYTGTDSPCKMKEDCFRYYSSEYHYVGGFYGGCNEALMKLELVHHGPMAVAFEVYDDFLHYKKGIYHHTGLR
Sequence of Recombinant Human (rh) DPP1 (P53634 25-134 limits assumed): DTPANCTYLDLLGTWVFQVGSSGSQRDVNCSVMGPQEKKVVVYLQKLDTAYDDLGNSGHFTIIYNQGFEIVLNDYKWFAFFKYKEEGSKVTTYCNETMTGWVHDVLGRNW
Sequence of Recombinant Human (rh) DPP1 (P53634 395-463 limits assumed): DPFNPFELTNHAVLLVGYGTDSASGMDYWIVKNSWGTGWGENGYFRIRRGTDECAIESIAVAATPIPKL

Structure (SMILES)	IC50 [nM]
CCS(=O)(=O)c1ccc(-c2ccc(C[C@@H](C#N)NC(=O)C3(N)CCOCC3)cc2)cc1 [Example 2, (S)-4-Amino-N-(1-cyano-2-(4′-(ethylsulfonyl)biphenyl-4-yl)ethyl)tetrahydro-2H-pyran-4-carboxamide]	0.794
N#C[C@H](Cc1ccc(-c2ccc(F)cc2)cc1)NC(=O)C1(N)CCOCC1 [Example 4, (S)-4-Amino-N-(1-cyano-2-(4′-fluorobiphenyl-4-yl)ethyl)tetrahydro-2H-pyran-4-carboxamide]	0.398
CS(=O)(=O)Oc1ccc(-c2ccc(C[C@@H](C#N)NC(=O)C3(N)CCOCC3)cc2)cc1 [Example 6, (S)-4′-(2-(4-Aminotetrahydro-2H-pyran-4-carboxamido)-2-cyanoethyl)biphenyl-4-yl methanesulfonate trifluoroacetic acid salt, methanesulfonate trifluoroacetic acid …]	0.398
COCCn1c(=O)sc2ccc(-c3ccc(C[C@@H](C#N)NC(=O)C4(N)CCOCC4)cc3)cc21 [Example 9, (S)-4-Amino-N-(1-cyano-2-(4-(3-(2-methoxyethyl)-2-oxo-2,3-dihydrobenzo[d]thiazol-5-yl)phenyl)ethyl)tetrahydro-2H-pyran-4-carboxamide trifluoroacetic acid salt]	< 0.316
CN1C(=O)COc2ccc(-c3ccc(C[C@@H](C#N)NC(=O)C4(N)CCOCC4)cc3)cc21 [Example 10, (S)-4-Amino-N-(1-cyano-2-(4-(4-methyl-3-oxo-3,4-dihydro-2H-benzo[b][1,4]oxazin-6-yl)phenyl)ethyl)tetrahydro-2H-pyran-4-carboxamide trifluoroacetic acid salt]	< 0.316
CS(=O)(=O)Oc1cccc(-c2ccc(C[C@@H](C#N)NC(=O)C3(N)CCOCC3)cc2)c1 [Example 12, (S)-4′-(2-(4-Aminotetrahydro-2H-pyran-4-carboxamido)-2-cyanoethyl)biphenyl-3-yl methanesulfonate]	0.501
Cn1c(=O)oc2ccc(-c3ccc(C[C@@H](C#N)NC(=O)C4(N)CCOCC4)cc3)cc21 [Example 17, (S)-4-amino-N-(1-cyano-2-(4-(3-methyl-2-oxo-2,3-dihydrobenzo[d]oxazol-5-yl)phenyl)ethyl)tetrahydro-2H-pyran-4-carboxamide]	0.316
Cc1ccc(-c2ccc(C[C@@H](C#N)NC(=O)C3(N)CCOCC3)cc2)cc1C#N [Example 18, (S)-4-Amino-N-(1-cyano-2-(3′-cyano-4′-methylbiphenyl-4-yl)ethyl)tetrahydro-2H-pyran-4-carboxamide trifluoroacetic acid salt]	0.794
CN1C(=O)Cc2ccc(-c3ccc(C[C@@H](C#N)NC(=O)C4(N)CCOCC4)cc3)cc21 [Example 21, (S)-4-Amino-N-(1-cyano-2-(4-(1-methyl-2-oxoindolin-6-yl)phenyl)ethyl)tetrahydro-2H-pyran-4-carboxamide]	0.251
N#Cc1cc(-c2ccc(C[C@@H](C#N)NC(=O)C3(N)CCOCC3)cc2)ccc1F [Example 22, (S)-4-Amino-N-(1-cyano-2-(3′-cyano-4′-fluorobiphenyl-4-yl)ethyl)tetrahydro-2H-pyran-4-carboxamide]	< 0.398
CS(=O)(=O)c1cccc(-c2ccc(C[C@@H](C#N)NC(=O)C3(N)CCOCC3)cc2)c1 [Example 23, (S)-4-Amino-N-(1-cyano-2-(3′-(methylsulfonyl)biphenyl-4-yl)ethyl)tetrahydro-2H-pyran-4-carboxamide trifluoroacetic acid salt]	0.631
N#C[C@H](Cc1ccc(-c2ccc(C(N)=O)c(F)c2)cc1)NC(=O)C1(N)CCOCC1 [Example 25, (S)-4-Amino-N-(2-(4′-carbamoyl-3′-fluorobiphenyl-4-yl)-1-cyanoethyl)tetrahydro-2H-pyran-4-carboxamide]	1.26
CN1Cc2ccc(-c3ccc(C[C@@H](C#N)NC(=O)C4(N)CCOCC4)cc3)cc2C1=O [Example 30, (S)-4-Amino-N-(1-cyano-2-(4-(2-methyl-3-oxoisoindolin-5-yl)phenyl)ethyl)tetrahydro-2H-pyran-4-carboxamide trifluoroacetic acid salt]	5.01
CN1Cc2cc(-c3ccc(C[C@@H](C#N)NC(=O)C4(N)CCOCC4)cc3)ccc2C1=O [Example 31, (S)-4-Amino-N-(1-cyano-2-(4-(2-methyl-1-oxoisoindolin-5-yl)phenyl)ethyl)tetrahydro-2H-pyran-4-carboxamide]	1.58

Second part, the molecule after the results:

IC50 [nM]	Structure (SMILES)
0.631	N#C[C@H](Cc1ccc(-c2ccc(C(F)(F)F)cc2)cc1)NC(=O)C1(N)CCOCC1 [Example 1, (S)-4-Amino-N-(1-cyano-2-(4′-(trifluoromethyl)biphenyl-4-yl)ethyl)tetrahydro-2H-pyran-4-carboxamide]
1	CC(C)S(=O)(=O)c1ccc(-c2ccc(C[C@@H](C#N)NC(=O)C3(N)CCOCC3)cc2)cc1 [Example 5, (S)-4-Amino-N-(1-cyano-2-(4′-(isopropylsulfonyl)biphenyl-4-yl)ethyl)tetrahydro-2H-pyran-4-carboxamide]
0.631	N#C[C@H](Cc1ccc(-c2ccc(S(=O)(=O)N3CCC3)cc2)cc1)NC(=O)C1(N)CCOCC1 [Example 7, (S)-4-Amino-N-(2-(4′-(azetidin-1-ylsulfonyl)biphenyl-4-yl)-1-cyanoethyl)tetrahydro-2H-pyran-4-carboxamide trifluoroacetic acid salt]
0.794	N#Cc1cccc(-c2ccc(C[C@@H](C#N)NC(=O)C3(N)CCOCC3)cc2)c1 [Example 8, (S)-4-Amino-N-(1-cyano-2-(3′-cyanobiphenyl-4-yl)ethyl)tetrahydro-2H-pyran-4-carboxamide]
< 0.316	COCCCn1c(=O)oc2ccc(-c3ccc(C[C@@H](C#N)NC(=O)C4(N)CCOCC4)cc3)cc21 [Example 11, (S)-4-Amino-N-(1-cyano-2-(4-(3-(3-methoxypropyl)-2-oxo-2,3-dihydrobenzo[d]oxazol-5-yl)phenyl)ethyl)tetrahydro-2H-pyran-4-carboxamide trifluoroacetic acid salt]
0.316	N#C[C@H](Cc1ccc(-c2ccc(F)c(F)c2)cc1)NC(=O)C1(N)CCOCC1 [Example 13, (S)-4-Amino-N-(1-cyano-2-(3′,4′-difluorobiphenyl-4-yl)ethyl)tetrahydro-2H-pyran-4-carboxamide trifluoroacetic acid salt]
0.126	N#C[C@H](Cc1ccc(-c2ccc3c(c2)CNC3=O)cc1)NC(=O)C1(N)CCOCC1 [Example 15, (S)-4-Amino-N-(1-cyano-2-(4-(1-oxoisoindolin-5-yl)phenyl)ethyl)tetrahydro-2H-pyran-4-carboxamide]
1	CN1Cc2cc(-c3ccc(C[C@@H](C#N)NC(=O)C4(N)CCOCC4)cc3)ccc2S1(=O)=O [Example 16, (S)-4-Amino-N-{cyano-2-[4-(2-methyl-1,1-dioxido-2,3-dihydro-1,2-benzisothiazol-5-yl)phenyl]ethyl}tetrahydro-2H-pyran-4-carboxamide trifluoroacetic acid salt]
< 0.316	Cc1cc(-c2ccc(C[C@@H](C#N)NC(=O)C3(N)CCOCC3)cc2)ccc1C#N [Example 19, (S)-4-Amino-N-(1-cyano-2-(4′-cyano-3′-methylbiphenyl-4-yl)ethyl)tetrahydro-2H-pyran-4-carboxamide trifluoroacetic acid salt]
0.794	COc1ccc(-c2ccc(C[C@@H](C#N)NC(=O)C3(N)CCOCC3)cc2)cc1 [Example 20, (S)-4-Amino-N-(1-cyano-2-(4′-methoxybiphenyl-4-yl)ethyl)tetrahydro-2H-pyran-4-carboxamide]
0.2	COCCn1c(=O)oc2ccc(-c3ccc(C[C@@H](C#N)NC(=O)C4(N)CCOCC4)cc3)cc21 [Example 24, (S)-4-Amino-N-(1-cyano-2-(4-(3-(2-methoxyethyl)-2-oxo-2,3-dihydrobenzo[d]oxazol-5-yl)phenyl)ethyl)tetrahydro-2H-pyran-4-carboxamide trifluoroacetic acid salt]
1.26	COc1cc(-c2ccc(C[C@@H](C#N)NC(=O)C3(N)CCOCC3)cc2)ccn1 [Example 26, (S)-4-Amino-N-(1-cyano-2-(4-(2-methoxypyridin-4-yl)phenyl)ethyl)tetrahydro-2H-pyran-4-carboxamide]
1.58	N#C[C@H](Cc1ccc(-c2ccc(S(=O)(=O)N3CCOCC3)cc2)cc1)NC(=O)C1(N)CCOCC1 [Example 27, (S)-4-Amino-N-(1-cyano-2-(4′-(morpholinosulfonyl)biphenyl-4-yl)ethyl)tetrahydro-2H-pyran-4-carboxamide trifluoroacetic acid salt]
0.398	CN1C(=O)CSc2cc(-c3ccc(C[C@@H](C#N)NC(=O)C4(N)CCOCC4)cc3)ccc21 [Example 28, (S)-4-Amino-N-(1-cyano-2-(4-(4-methyl-3-oxo-3,4-dihydro-2H-benzo[b][1,4]thiazin-7-yl)phenyl)ethyl)tetrahydro-2H-pyran-4-carboxamide]
0.631	CN1CCN(S(=O)(=O)c2ccc(-c3ccc(C[C@@H](C#N)NC(=O)C4(N)CCOCC4)cc3)cc2)CC1 [Example 29, (S)-4-Amino-N-(1-cyano-2-(4′-(4-methylpiperazin-1-ylsulfonyl)biphenyl-4-yl)ethyl)tetrahydro-2H-pyran-4-carboxamide]

From patent publication US8193239B2, “Substituted 1-cyanoethylheterocyclylcarboxamide compounds” (AstraZeneca AB, priority 2009, dated 2012)
